Consider 42 compounds from patent US12421212B2, “Substituted benzenecarboxamides as IL-17A modulators” (DiCE Alpha, Inc., priority 2019, dated 2025).

Each structure is given as a SMILES string.

For one experiment, the target named is T1, IL-17A/A (Homo sapiens, UniProt Q16552).
T1 construct: purchased Genscript Z03228
T1 sequence (Q16552 24-155): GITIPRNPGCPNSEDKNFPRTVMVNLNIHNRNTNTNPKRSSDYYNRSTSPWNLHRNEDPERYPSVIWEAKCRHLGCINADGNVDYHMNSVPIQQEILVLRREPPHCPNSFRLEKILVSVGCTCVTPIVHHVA
The experiment is described as follows: IL-17A/A HEK-Blue Cell Assay. Format: cell-based. The conditions noted are these: HEK-Blue IL-17A reporter cell line, SEAP readout at A630, 20 hours incubation with IL-17A/A; top concentration 10 uM, 1 uM or 0.3 uM.
Take `CCC(=O)N[C@@H](C(=O)N1CCN(C)CC1)[C@@H](C)c1ccc(NC(=O)[C@@H](NC(=O)c2cnon2)[C@H]2CC[C@H](C)CC2)c(F)c1` [Compound 547]: the “IL-17A/A inhibition (pIC50)” value was “X3b (compounds were evaluated up to 0.3 uM and inhibited activity at 0.3 uM by less than 20%)”.
For `CCC(=O)N[C@H](Cc1ccc(NC(=O)[C@@H](NC(=O)c2nn(C)c3c2CNCC3)C2CCCCC2)c(F)c1)C(=O)N1CCN(C)CC1` [Compound 706], the “IL-17A/A inhibition (pIC50)” value is “X2b (compounds were evaluated up to 1 uM and inhibited activity at 1 uM by less than 20%)”.
With `CCC(=O)N[C@@H](C(=O)N1CCN(C)CC1)[C@@H](C)c1ccc(NC(=O)C(NC(=O)c2ccnn2CC)C(C)C2CCC(C)CC2)c(F)c1` (single isomer, unassigned) [Compound 585], the “IL-17A/A inhibition (pIC50)” value is “X2a (compounds were evaluated up to 1 uM and did not inhibit activity by >80%, however they showed some activity at 1 uM (less than 80% and more than 20%))”.
On to `CCC(=O)N[C@H](Cc1ccc(NC(=O)[C@H](Cc2cc(C)cc(C)c2)NC(=O)c2ccnn2CC)c(F)c1)C(=O)N1CCN(C)CC1` [Compound 727], for which the “IL-17A/A inhibition (pIC50)” value is “X2b (compounds were evaluated up to 1 uM and inhibited activity at 1 uM by less than 20%)”.
As to `CCC(=O)N[C@@H](C(=O)N1CCN(C)CC1)[C@@H](C)c1ccc(NC(=O)C(NC(=O)c2ccnn2CC)C(C)c2ccccc2Cl)c(F)c1` (stereo partly drawn) [Compound 520], the “IL-17A/A inhibition (pIC50)” value was “X1b (compounds were evaluated up to 10 uM and inhibited activity at 10 uM by less than 20%)”.
For the compound `CCC(=O)N[C@@H](C(=O)N1CCN(C)CC1)[C@@H](C)c1ccc(NC(=O)C(NC(=O)c2nonc2CC)C(C)c2ccccc2Cl)c(F)c1` (stereo partly drawn) [Compound 522], the “IL-17A/A inhibition (pIC50)” value was “X1b (compounds were evaluated up to 10 uM and inhibited activity at 10 uM by less than 20%)”.

Still in this experiment, the particulars now being: HEK-Blue IL-17A reporter cell line, SEAP readout at A630, 20 hours incubation with IL-17A/A; top concentration 10 uM, 1 uM or 0.3 uM; read-out: IL-17A/A inhibition (pIC50) (converted).
`CCC(=O)N[C@@H](C(=O)N1CCN(Cc2ccccn2)CC1)[C@@H](C)c1ccc(NC(=O)[C@@H](NC(=O)c2ccnn2CC)C2CCCCCC2)c(F)c1` [Compound 348]: the IC50 was below 10 nM.
With `CCn1nccc1C(=O)N[C@H](C(=O)Nc1ccc([C@H](C)[C@@H](NC(=O)c2cnns2)C(=O)N2CCN(C)CC2)cc1F)[C@H]1CC[C@H](C)CC1` [Compound 388], the IC50 is 10 to 100 nM.
Still for that read-out and setting: under `CCn1nccc1C(=O)N[C@H](C(=O)Nc1ccc([C@H](C)[C@@H](NC(=O)CC(F)(F)F)C(=O)N2CCN(C)CC2)cc1F)C1CCCCC1` [Compound 643] stands 100 to 10000 nM; under `CCC(=O)N[C@@H](C(=O)N1CCN(C)CC1)[C@@H](C)c1ccc(NC(=O)C(NC(=O)c2ccnn2CC)C(C)c2ccc(C)cc2)c(F)c1` (single isomer, unassigned) [Compound 294], 10 to 100 nM; under `CCC(=O)N[C@H](Cc1ccc(NC(=O)[C@@H](NC(=O)c2ccnn2CC)C2CCCCC2)c(F)c1)C(=O)N1CC(N(C)C)C1` [Compound 667], 100 to 10000 nM.
With `CCC(=O)N[C@H](Cc1ccc(NC(=O)[C@@H](NC(=O)C(F)(F)c2ccc(OC)nc2)C2CCC(F)(F)CC2)c(F)c1)C(=O)N1CCN(C)CC1` [Compound 215], the IC50 was 100 to 10000 nM.
Consider `CC(C)c1nonc1C(=O)N[C@H](C(=O)Nc1ccc([C@H](C)[C@@H](NC(=O)c2cnns2)C(=O)N2CCN(C)CC2)cc1F)[C@H]1CC[C@H](C)CC1` [Compound 550], for which the IC50 was below 10 nM.
As to `CCC(=O)N[C@@H](C(=O)N1CCN(CC)[C@@H](C)C1)[C@@H](C)c1ccc(NC(=O)[C@@H](NC(=O)c2nonc2CC)[C@H]2CC[C@H](C)CC2)c(F)c1` [Compound 467], the IC50 was below 10 nM.
For the compound `CCn1nnnc1C(=O)N[C@H](C(=O)Nc1ccc([C@H](C)[C@@H](NC(=O)N(C)C2CC2)C(=O)N2CCN(C)[C@H](C)C2)cc1F)[C@H]1CC[C@H](C)CC1` [Compound 604], the IC50 is below 10 nM.
Consider `CCn1nccc1C(=O)N[C@H](C(=O)Nc1ccc([C@H](C)[C@@H](NC(=O)OC2CC2)C(=O)N2CCN(C)CC2)cc1F)[C@H]1CC[C@H](C)CC1` [Compound 484], for which the IC50 was 10 to 100 nM.
In the case of `CCC(=O)N[C@@H](C(=O)N1CCN(C)CC1)[C@@H](C)c1ccc(NC(=O)C(NC(=O)c2ccnn2CC)C2CCc3cc(F)ccc32)c(F)c1` (single isomer, unassigned) [Compound 568], the IC50 is below 10 nM.
Take `CCn1nnnc1C(=O)N[C@H](C(=O)Nc1ccc([C@H](C)[C@@H](NC(=O)c2cnns2)C(=O)N2CCN(C)CC2)cc1F)[C@H]1CC[C@H](C)CC1` [Compound 525]: the IC50 was 10 to 100 nM.
Same read-out and setting: for `COc1cncc(C(F)(F)C(=O)N[C@H](C(=O)Nc2ccc([C@H](C)[C@@H](NC(=O)c3cnns3)C(=O)N3CCN(C)CC3)cc2F)[C@H]2CC[C@H](C)CC2)c1` [Compound 400] the value was below 10 nM; for `C[C@@H](c1ccc(NC(=O)[C@@H](NC(=O)C(F)(F)c2cccc(C#N)c2)C2CCCCC2)c(F)c1)[C@@H](NC(=O)CC1CC1)C(=O)N1CCN(C)CC1` [Compound 308], below 10 nM.
Regarding `CCC(=O)N[C@@H](C(=O)N[C@@H](C)C1CC1)[C@@H](C)c1ccc(NC(=O)[C@@H](NC(=O)c2ccnn2CC)[C@H]2CC[C@H](C)CC2)c(F)c1` [Compound 344], the IC50 was 10 to 100 nM.
For `CCn1nccc1C(=O)N[C@H](C(=O)Nc1ccc([C@H](C)[C@@H](NC(=O)c2cnns2)C(=O)N2CCN(C)CC2)cc1F)C1CCCCCC1` [Compound 337], the IC50 was below 10 nM.
Still for that read-out and setting: under `C[C@@H](c1ccc(NC(=O)[C@@H](NC(=O)C(F)(F)c2cccc(C#N)c2)C2CCCCC2)c(F)c1)[C@@H](NC(=O)NC1CCC1)C(=O)N1CCN(C)CC1` [Compound 318] stands 10 to 100 nM; under `CCC(=O)N[C@@H](C(=O)N1CCN(C)CC1(C)C)[C@@H](C)c1ccc(NC(=O)[C@@H](NC(=O)c2nonc2CC)[C@H]2CC[C@H](C)CC2)c(F)c1` [Compound 458], below 10 nM.
Turning to `CCc1nonc1C(=O)N[C@H](C(=O)Nc1ccc([C@H](C)[C@@H](NC(=O)N(C)C2CCC2)C(=O)N2CCN(C)CC2)cc1F)[C@H]1CC[C@H](C)CC1` [Compound 516], the IC50 is below 10 nM.
For `CCC(=O)N[C@H](Cc1ccc(NC(=O)[C@@H](NC(=O)c2conc2CC)C2CCCCCC2)c(F)c1)C(=O)N1CCN(C)CC1` [Compound 236], the IC50 was 10 to 100 nM.
The same measure, in the same setting: under `CCn1nccc1C(=O)N[C@H](C(=O)Nc1ccc([C@H](C)[C@@H](NC(=O)NC2CC2)C(=O)N2CCN(C)CC2)cc1F)C1CCCCCC1` [Compound 338] stands below 10 nM.
On the same count and under the same terms, for `CCC(=O)N[C@@H](C(=O)N1CCN(C)CC1)[C@@H](C)c1ccc(NC(=O)[C@@H](NC(=O)C(F)(F)c2ccc(OC)nc2)C2CCCCCC2)c(F)c1` [Compound 219] the value was 10 to 100 nM.
As for `CCC(=O)N[C@@H](C(=O)N1CCN(C)CC1)[C@@H](C)c1ccc(NC(=O)[C@@H](NC(=O)Cc2ccc(CC(=O)O)cc2)C2CCCCC2)c(F)c1` [Compound 769], the IC50 was 100 to 10000 nM.
Same read-out and setting: for `CCC(=O)N[C@H](Cc1ccc(NC(=O)[C@@H](NC(=O)C(F)(F)c2ccc(C)nc2)C2CCCCC2)c(F)c1)C(=O)N1CCN(C)CC1` [Compound 208] the value was 100 to 10000 nM.
As for `CCn1nccc1C(=O)N[C@H](C(=O)Nc1ccc([C@H](C)[C@@H](NC(=O)C(C)C2CC2)C(=O)N2CCN(C)C(C)(C)C2)cc1F)[C@H]1CC[C@H](C)CC1` (stereo partly drawn) [Compound 432], the IC50 was below 10 nM.
On to `CCC(=O)N[C@@H](C(=O)N1CCS(=O)(=O)CC1)[C@@H](C)c1ccc(NC(=O)[C@@H](NC(=O)c2ccnn2CC)C2CCCCCC2)c(F)c1` [Compound 353], for which the IC50 is 10 to 100 nM.
Same read-out and setting: for `CCC(=O)N[C@@H](C(=O)N1CCN(C)C[C@@H]1C)[C@@H](C)c1ccc(NC(=O)[C@@H](NC(=O)c2ccnn2CC)[C@H]2CC[C@H](C)CC2)c(F)c1` [Compound 429] the value was below 10 nM; for `CCn1ncnc1C(=O)N[C@H](C(=O)Nc1ccc([C@H](C)[C@@H](NC(=O)c2cnns2)C(=O)N2CCN(C)CC2)cc1F)[C@H]1CC[C@H](C)CC1` [Compound 410], 10 to 100 nM.
Regarding `CCC(=O)N[C@@H](C(=O)N1CCN(C)CC1)[C@@H](C)c1ccc(NC(=O)[C@@H](NC(=O)c2cccn2C(C)C)C2CCCCCC2)c(F)c1` [Compound 274], the IC50 is below 10 nM.
On to `CCC(=O)N[C@@H](C(=O)N1CCN(C)CC1)[C@@H](C)c1ccc(NC(=O)[C@@H](NC(=O)C(F)(F)c2cncc(OC)c2)[C@H]2CC[C@H](C)CC2)c(F)c1` [Compound 281], for which the IC50 is 10 to 100 nM.
With `CC(C)n1nccc1C(=O)N[C@H](C(=O)Nc1ccc([C@H](C)[C@@H](NC(=O)c2ccnn2C2CC2)C(=O)N2CCN(C)CC2)cc1F)[C@H]1CC[C@H](C)CC1` [Compound 399], the IC50 was below 10 nM.
For the compound `CCn1nccc1C(=O)N[C@H](C(=O)Nc1ccc([C@H](C)[C@@H](NC(=O)c2cnns2)C(=O)N2CCN(Cc3ccccc3)CC2)cc1F)[C@H]1CC[C@H](C)CC1` [Compound 441], the IC50 was below 10 nM.
Still for that read-out and setting: for `CCC(=O)N[C@@H](C(=O)N1CCN(C)CC1)[C@@H](C)c1ccc(NC(=O)[C@@H](NC(=O)C(F)(F)c2cccc(C#N)c2)C2CCCCC2)cc1` [Compound 300] the value was 10 to 100 nM; for `CCn1nccc1C(=O)N[C@H](C(=O)Nc1ccc([C@H](C)[C@@H](NC(=O)c2cnns2)C(=O)N2CCNC3(CC3)C2)cc1F)[C@H]1CC[C@H](C)CC1` [Compound 438], 10 to 100 nM.
Still for that read-out and setting: for `CCC(=O)N[C@H](Cc1ccc(NC(=O)[C@@H](NC(=O)c2ccnn2CC)[C@H]2CC[C@H](C)CC2)c(F)c1)C(=O)N1CCN(C)CC1` [Compound 627] the value was 100 to 10000 nM; for `CCn1nccc1C(=O)N[C@H](C(=O)Nc1ccc([C@H](C)[C@@H](NC(=O)N(C)C2CC2)C(=O)N2CCN(C)CC2)cc1F)[C@H]1CC[C@H](C)CC1` [Compound 488], below 10 nM.
